Read-outs that look alike come from different tables or passages of the source.
System: Human peripheral blood mononuclear cells (PBMC)
Test: Cytokine induction in human cells (PBMC)
Type: cell-based
Conditions: for minimal effective concentration / MEC to Induce Cytokine TNF-alpha: human PBMC, 21-24 hours culture, lowest concentration giving cytokine level at least 2× negative control
Description: Whole blood was obtained from healthy human donors and collected by venipuncture into vacutainer tubes or syringes containing EDTA. Human peripheral blood mononuclear cells (PBMC) were purified from the whole blood by density gradient centrifugation. Histopaque 1077 (15 mL, Sigma, St. Louis, MO) was transferred to 6×50 mL sterile polypropylene conical tubes. The Histopaque was overlayed with 15-25 mL of blood diluted 1:2 in Hank's Balanced Salts Solution (HBSS) (Gibco, Life Technologies, Grand Island, NY). The tubes were then centrifuged at 1370 rpm for 30 minutes at 20° C., with no brake (400×g, GH 3.8A Rotor).
The interface (buffy coat) containing the PBMC was collected and placed in a new sterile 50 ml conical polypropylene centrifuge tube. The PBMC were mixed with an equal volume of HBSS (about 20 mL from the interface and about 20 mL of HBSS), and then centrifuged at 1090 rpm, 10 minutes, 20° C., with brake (270×g, GH 3.8A Rotor). After completing centrifugation, the cells were resuspended in 2-3 mL ACK Red blood cell lysis buffer (ammonium chloride potassium solution, Gibco, Life Technologies) and incubated for 2-5 minutes at 20° C. Next, HBSS (40 mL) was added to the cells, and the sample was centrifuged at 270×g for 10 minutes at 20° C. The supernatant was decanted, and the cell pellet was resuspended in 5 mL AIM V Medium (Gibco, Life Technologies). Cell aggregates and debris were removed by filtering the cell solution through a BD Falcon 70 micron nylon cell strainer (BD Biosciences, San Jose, CA).
The number of viable cells was determined by counting with a Miltenyi FACS instrument (Miltenyi Biotec Inc., San Diego, CA) or by using a hemocytometer. For determining cell viability with a hemocytometer, the cells were diluted 1/10 in 0.4% trypan blue and HBSS (specifically, 50 microliter of trypan blue+40 microliter of HBSS+10 microliter of cell solution were added to a microfuge tube and mixed). Ten microliters of the diluted cells were then applied to the hemocytometer, and the number of viable PBMC were determined by microscopy.
The PBMC sample was then resuspended in 96-well plates at a concentration of 8×10^5 cells/well in 0.1 mL of AIM-V medium. Each compound was solubilized in dimethyl sulfoxide (DMSO) to create a 3 mM stock solution. The stock solution was then further diluted with AIM-V medium to prepare the serial dilutions. The diluted compound (100 microliters) was then transferred to the PBMCs to produce testing sets with final compound concentrations of either 30, 10, 3.3, 1.1, 0.37, 0.12, 0.04, 0.01 micromolar (testing set A); 30, 10, 3.3, 1.1, 0.37, 0.12, 0.04 micromolar (testing set B); 100, 33.3, 11.1, 3.7, 1.2, 0.4 micromolar (testing set C); or 3.0, 1.0, 0.33, 0.11, 0.037, 0.012, 0.004, 0.0014 micromolar (testing set D). The plates also had both positive and negative controls. The negative control wells contained only AIM-V medium with no example compound. The positive control wells contained a control set of imiquimod serially diluted to concentrations of either 30, 10, 3.3, 1.1, 0.37, 0.12, 0.04, 0.01 micromolar (control set A); 30, 10, 3.3, 1.1, 0.37, 0.12, 0.04 micromolar (control set B); 100, 33.3, 11.1, 3.7, 1.2, 0.4 micromolar (control set C); or 3.0, 1.0, 0.33, 0.11, 0.037, 0.012, 0.004, 0.0014 micromolar (control set D). The concentrations used in the control set were selected to match the concentrations used in the testing set. The plates were then cultured at 37° C./5% CO2 for 21-24 hours. Cell-free supernatants were harvested by centrifuging the 96-well plates at 2100 rpm, 23° C. for 10 minutes. Approximately 160 microliters of the supernatant were then stored in a NUNC 96-well plate, covered with the compression cap and stored at −80° C. until the cytokine analysis was done.
IFN-alpha cytokine levels (picograms/mL) were measured by ELISA (human IFN-alpha, pan specific, Mabtech, Cincinnati, OH). […]

[1] = ELISA, read-out: MEC to Induce Cytokine IFN-alpha
[2] = multiplex bead assay, read-out: MEC to Induce Cytokine IFN-gamma

Compound	minimal effective concentration [1]	MEC to Induce Cytokine TNF-alpha (multiplex bead assay)	minimal effective concentration [2]	activity toward cytokine production (statement in the description)
CCOC[C@H](C(C)C)n1cnc2c(N)nc3ccccc3c21 [Example 1, 1-[(1S)-1-(ethoxymethyl)-2-methyl-propyl]imidazo[4,5-c]quinolin-4-amine]	≤ 0.04 µM	≤0.04 µM	≤ 0.04 µM	–
CCOC[C@@H](C(C)C)n1cnc2c(N)nc3ccccc3c21 [Example 2, 1-[(1R)-1-(ethoxymethyl)-2-methyl-propyl]imidazo[4,5-c]quinolin-4-amine]	3.3 µM	3.3 µM	> 30 µM	–
CCOC[C@H](C(C)C)n1c(C)nc2c(N)nc3ccccc3c21 [Example 3, 1-[(1S)-1-(ethoxymethyl)-2-methyl-propyl]-2-methyl-imidazo[4,5-c]quinolin-4-amine]	0.37 µM	0.37 µM	1.1 µM	–
CCOC[C@@H](C(C)C)n1c(C)nc2c(N)nc3ccccc3c21 [Example 4, 1-[(1R)-1-(ethoxymethyl)-2-methyl-propyl]-2-methyl-imidazo[4,5-c]quinolin-4-amine]	10 µM	10 µM	> 30 µM	–
CCOC[C@@H](n1cnc2c(N)nc3ccccc3c21)C(C)(C)O [Example 5, (3R)-3-(4-aminoimidazo[4,5-c]quinolin-1-yl)-4-ethoxy-2-methyl-butan-2-ol]	0.12 µM	0.04 µM	0.12 µM	–
CCOC[C@H](n1cnc2c(N)nc3ccccc3c21)C(C)(C)O [Example 6, (3S)-3-(4-aminoimidazo[4,5-c]quinolin-1-yl)-4-ethoxy-2-methyl-butan-2-ol]	> 100 µM	>100 µM	> 100 µM	inactive toward cytokine production
CCOC[C@@H](n1c(C)nc2c(N)nc3ccccc3c21)C(C)(C)O [Example 7, (3R)-3-(4-amino-2-methyl-imidazo[4,5-c]quinolin-1-yl)-4-ethoxy-2-methyl-butan-2-ol]	0.12 µM	–	0.37 µM	–
CCOC[C@@H](n1c(CC)nc2c(N)nc3ccccc3c21)C(C)(C)O [Example 8, (3R)-3-(4-amino-2-ethyl-imidazo[4,5-c]quinolin-1-yl)-4-ethoxy-2-methyl-butan-2-ol]	10 µM	–	3.3 µM	–
CCOC[C@@H](n1cnc2c(N)nc3ccccc3c21)C(C)(C)C [Example 9, 1-[(1S)-1-(ethoxymethyl)-2,2-dimethyl-propyl]imidazo[4,5-c]quinolin-4-amine]	0.004 µM	0.004 µM	0.012 µM	–
CCOC[C@H](n1cnc2c(N)nc3ccccc3c21)C(C)(C)C [Example 10, 1-[(1R)-1-(ethoxymethyl)-2,2-dimethyl-propyl]imidazo[4,5-c]quinolin-4-amine]	3 µM	3.0 µM	3 µM	–
COC[C@@H](n1cnc2c(N)nc3ccccc3c21)C(C)(C)C [Example 11, 1-[(1S)-1-(methoxymethyl)-2,2-dimethyl-propyl]imidazo[4,5-c]quinolin-4-amine]	≤ 0.4 µM	≤0.4 µM	≤ 0.4 µM	–
CCOC[C@@H](n1cnc2c(N)nc3ccccc3c21)C(O)(CC)CC [Example 12, (2R)-2-(4-aminoimidazo[4,5-c]quinolin-1-yl)-1-ethoxy-3-ethyl-pentan-3-ol]	0.04 µM	–	0.12 µM	–
CCO[C@@H](C)[C@@H](n1cnc2c(N)nc3ccccc3c21)C(C)(C)O [Example 13, (3R,4S)-3-(4-aminoimidazo[4,5-c]quinolin-1-yl)-4-ethoxy-2-methyl-pentan-2-ol]	3.3 µM	10 µM	10 µM	–
